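Five compound concentrations were applied to cells in 96-well plates for 48 hours; endpoints were derived by simple linear interpolation of the resulting dose-response curve. TGI denotes the concentration required for complete inhibition of growth.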
Key:
Assay in all cases: inhibition of tumour cell growth, NCI panel, 48 h
M14 melanoma = tested on: M14 melanoma
SK-MEL-2 melanoma = tested on: SK-MEL-2 melanoma
HT29 colon = tested on: HT29 colon
OVCAR-3 ovarian = tested on: OVCAR-3 ovarian
NCI-H23 lung = tested on: NCI-H23 lung
NCI/ADR-RES ovarian = tested on: NCI/ADR-RES ovarian
TK-10 renal = tested on: TK-10 renal
HCT-116 colon = tested on: HCT-116 colon
A498 renal = tested on: A498 renal
BT-549 breast = tested on: BT-549 breast
HCT-15 colon = tested on: HCT-15 colon
UO-31 renal = tested on: UO-31 renal
SK-MEL-28 melanoma = tested on: SK-MEL-28 melanoma
MDA-MB-231 breast = tested on: MDA-MB-231 breast
HCC-2998 colon = tested on: HCC-2998 colon
SK-OV-3 ovarian = tested on: SK-OV-3 ovarian
SK-MEL-5 melanoma = tested on: SK-MEL-5 melanoma
SF-295 CNS = tested on: SF-295 CNS
EKVX NSCLC = tested on: EKVX NSCLC
HS 578T breast = tested on: HS 578T breast
UACC-257 melanoma = tested on: UACC-257 melanoma
OVCAR-4 ovarian = tested on: OVCAR-4 ovarian
PC-3 prostate = tested on: PC-3 prostate
786-0 renal = tested on: 786-0 renal
OVCAR-5 ovarian = tested on: OVCAR-5 ovarian
SNB-19 CNS = tested on: SNB-19 CNS
HOP-62 NSCLC = tested on: HOP-62 NSCLC
KM12 colon = tested on: KM12 colon
SF-539 CNS = tested on: SF-539 CNS
NCI-H226 lung = tested on: NCI-H226 lung
OVCAR-8 ovarian = tested on: OVCAR-8 ovarian
MDA-MB-435 = tested on: MDA-MB-435
LOX IMVI melanoma = tested on: LOX IMVI melanoma
RPMI-8226 leukemia = tested on: RPMI-8226 leukemia
U251 CNS = tested on: U251 CNS
SR leukemia = tested on: SR leukemia
CAKI-1 renal = tested on: CAKI-1 renal
SF-268 CNS = tested on: SF-268 CNS
RXF 393 renal = tested on: RXF 393 renal
SW-620 colon = tested on: SW-620 colon
MCF7 breast = tested on: MCF7 breast
COLO 205 colon = tested on: COLO 205 colon
K-562 leukemia = tested on: K-562 leukemia
HOP-92 NSCLC = tested on: HOP-92 NSCLC
IGROV1 ovarian = tested on: IGROV1 ovarian
CCRF-CEM leukemia = tested on: CCRF-CEM leukemia
HL-60(TB) leukemia = tested on: HL-60(TB) leukemia
MOLT-4 leukemia = tested on: MOLT-4 leukemia
SNB-75 CNS = tested on: SNB-75 CNS
ACHN renal = tested on: ACHN renal
UACC-62 melanoma = tested on: UACC-62 melanoma

Work on O=C1C(=O)c2ccccc2C(O)=C1Cc1ccccc1 yielded a TGI (M14 melanoma) of over 100 µM, a TGI (SK-MEL-2 melanoma) of over 100 µM and a TGI (HT29 colon) of over 100 µM. The TGI (OVCAR-3 ovarian) was 79.7 µM, the TGI (NCI-H23 lung) was over 100 µM and the TGI (NCI/ADR-RES ovarian) was over 100 µM. It also gave a TGI (TK-10 renal) of over 100 µM, a TGI (HCT-116 colon) of over 100 µM and a TGI (A498 renal) of over 100 µM. It also gave a TGI (BT-549 breast) of over 100 µM, a TGI (HCT-15 colon) of over 100 µM and a TGI (UO-31 renal) of over 100 µM. The TGI (SK-MEL-28 melanoma) was over 100 µM, the TGI (MDA-MB-231 breast) was over 100 µM and the TGI (HCC-2998 colon) was over 100 µM. The TGI (SK-OV-3 ovarian) was over 100 µM, the TGI (SK-MEL-5 melanoma) was 39 µM and the TGI (SF-295 CNS) was over 100 µM. It also gave a TGI (EKVX NSCLC) of over 100 µM, a TGI (HS 578T breast) of over 100 µM and a TGI (UACC-257 melanoma) of over 100 µM. It also gave a TGI (OVCAR-4 ovarian) of over 100 µM, a TGI (PC-3 prostate) of over 100 µM and a TGI (786-0 renal) of over 100 µM. The TGI (OVCAR-5 ovarian) was over 100 µM.
In the case of COc1ccc(NC(=S)N/N=C/c2c(C)n(C)n(-c3ccccc3)c2=O)cc1, the TGI (SNB-19 CNS) was 46.2 µM, the TGI (HOP-62 NSCLC) was 41.7 µM and the TGI (KM12 colon) was over 100 µM. For the same compound, the TGI (SF-539 CNS) was 59.4 µM, the TGI (NCI-H226 lung) was over 100 µM and the TGI (M14 melanoma) was over 100 µM. For the same compound, the TGI (SK-MEL-2 melanoma) was over 100 µM, the TGI (HT29 colon) was over 100 µM and the TGI (OVCAR-8 ovarian) was 55.7 µM. It also gave a TGI (NCI-H23 lung) of over 100 µM, a TGI (NCI/ADR-RES ovarian) of over 100 µM and a TGI (MDA-MB-435) of over 100 µM. For the same compound, the TGI (TK-10 renal) was over 100 µM, the TGI (HCT-116 colon) was over 100 µM and the TGI (LOX IMVI melanoma) was over 100 µM. For the same compound, the TGI (A498 renal) was 49.8 µM, the TGI (BT-549 breast) was over 100 µM and the TGI (RPMI-8226 leukemia) was over 100 µM. The TGI (HCT-15 colon) was over 100 µM, the TGI (U251 CNS) was 51.7 µM and the TGI (SR leukemia) was over 100 µM. The TGI (CAKI-1 renal) was 51.8 µM, the TGI (SF-268 CNS) was 70.7 µM and the TGI (RXF 393 renal) was 56.6 µM. It also gave a TGI (SW-620 colon) of over 100 µM, a TGI (UO-31 renal) of over 100 µM and a TGI (SK-MEL-28 melanoma) of over 100 µM. It also gave a TGI (MDA-MB-231 breast) of 62.6 µM, a TGI (MCF7 breast) of over 100 µM and a TGI (COLO 205 colon) of over 100 µM. The TGI (K-562 leukemia) was over 100 µM, the TGI (HCC-2998 colon) was over 100 µM and the TGI (HOP-92 NSCLC) was 65.4 µM. For the same compound, the TGI (IGROV1 ovarian) was over 100 µM, the TGI (CCRF-CEM leukemia) was over 100 µM and the TGI (SK-OV-3 ovarian) was 82.6 µM. It also gave a TGI (SK-MEL-5 melanoma) of over 100 µM, a TGI (SF-295 CNS) of over 100 µM and a TGI (EKVX NSCLC) of over 100 µM. It also gave a TGI (HL-60(TB) leukemia) of over 100 µM, a TGI (HS 578T breast) of 70.3 µM and a TGI (UACC-257 melanoma) of over 100 µM. The TGI (OVCAR-4 ovarian) was 39.8 µM, the TGI (PC-3 prostate) was over 100 µM and the TGI (MOLT-4 leukemia) was over 100 µM. The TGI (SNB-75 CNS) was 84.3 µM, the TGI (786-0 renal) was 60.4 µM and the TGI (ACHN renal) was over 100 µM. The TGI (UACC-62 melanoma) was over 100 µM.
